Measurements as given in US9617244B2, “Antibacterial quinoline derivatives” (JANSSEN PHARMACEUTICA NV, priority 2012, dated 2017).
≈ marks a conversion by molar mass, not a printed value.

Legend:
[1] = test system: Staphylococcus aureus (ATCC29213); assay: In-vitro anti-bacterial activity, microtitre plate assay, IC90 determination (non-mycobacterial strains); type: cell-based; conditions: 90% inhibitory concentration for bacterial growth, resazurin fluorescence; for IC90: Staphylococcus aureus, ATCC29213, 24 h, read-out: IC90 STA B29213; for IC90 STA B29213: 24 hours
Procedure, shortened: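 Inoculum of about 100 TCID50 (10–60 CFU/well) in Mueller-Hinton broth, serial five-fold compound dilutions, 24 h at 37 °C in air. Growth read by resazurin fluorescence (ex 530/em 590 nm); IC90 in μg/ml as 90% growth inhibition.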

[2] = test system: Mycobacterium smegmatis (ATCC607); assay: In-vitro anti-bacterial activity against strain M. Smegmatis ATCC607; type: cell-based; conditions: 90% inhibitory concentration for bacterial growth, Alamar Blue fluorescence; for IC90 MSM 607: 48 hours; for IC90: Mycolicibacterium smegmatis, ATCC607, 48 h, read-out: IC90 MSM 607
Procedure, shortened: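 Serial five-fold compound dilutions in BSA-supplemented wells, inoculated with ~250 CFU/well in Mueller-Hinton broth, incubated 48 h at 37 °C, 5% CO2. Growth read by Alamar Blue fluorescence (ex 530/em 590 nm); IC90 in μg/ml.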

In the case of Cc1cc(F)ccc1C1CC(O)(C(c2ccccc2)c2cc3cc(S(C)(=O)=O)ccc3[nH]c2=O)CCN1 (centres unmarked) [Compound 237], the IC90 [1] is reported as > 13.9 µg/mL and the “IC90 MSM 607” value [2] is reported as 11.06 µg/mL (≈ 21.2 µM).

With Cc1cc(F)ccc1C1CC(O)(C(c2ccccc2)c2cc3cc(S(C)(=O)=O)ccc3[nH]c2=O)CCN1 (centres unmarked) [Compound 238] the “IC90 STA B29213” value [1] was >13.99 µg/mL and the “IC90 MSM 607” value [2] was >13.99 µg/mL.

With O=c1[nH]c2ccc(Cl)cc2cc1C(c1ccc(Cl)cc1)C1(O)CCNC(Cc2ccccc2)C1 (centres unmarked) [Compound 239] the “IC90 STA B29213” value [1] was 1.67 µg/mL (≈ 3.38 µM) and the “IC90 MSM 607” value [2] was 2.97 µg/mL (≈ 6.02 µM).

With O=c1[nH]c2ccc(Cl)cc2cc1C(c1ccc(Cl)cc1)C1(O)CCNC(Cc2ccccc2)C1 (centres unmarked) [Compound 240] the “IC90 STA B29213” value [1] was 6.67 µg/mL (≈ 13.5 µM) and the “IC90 MSM 607” value [2] was 4.21 µg/mL (≈ 8.53 µM).

With O=c1[nH]c2ccc(Cl)cc2cc1C(c1ccc(Cl)cc1)C1(O)CCNC(Cc2ccccc2)C1 (centres unmarked) [Compound 241] the “IC90 STA B29213” value [1] was 4.72 µg/mL (≈ 9.57 µM) and the “IC90 MSM 607” value [2] was 3.34 µg/mL (≈ 6.77 µM).

COc1nc2ccc(SC)cc2cc1C(c1ccc(Cl)cc1)C1(O)CCNC(c2ccc(F)cc2C)C1 (centres unmarked) [Compound 242] was tested, and the “IC90 STA B29213” value [1] was 1.51 µg/mL (≈ 2.81 µM) and the IC90 [2] was 1.2 µg/mL (≈ 2.23 µM).

COc1nc2ccc(S(C)(=O)=O)cc2cc1C(c1ccccc1)C1(O)CCNC(c2ccc(F)cc2C)C1 (centres unmarked) [Compound 253] was tested, and the “IC90 STA B29213” value [1] was >13.43 µg/mL and the “IC90 MSM 607” value [2] was >13.43 µg/mL.

For O=c1[nH]c2ccc(Br)cc2cc1C(c1ccc(Cl)cc1)C1(O)CCNC(CC2CCCCC2)C1 (centres unmarked) [Compound 254], the IC90 [1] was 3.6 µg/mL (≈ 6.62 µM) and the “IC90 MSM 607” value [2] was 3.60 µg/mL (≈ 6.62 µM).

O=c1[nH]c2ccc(Br)cc2cc1C(c1ccc(Cl)cc1)C1(O)CCNC(CC2CCCCC2)C1 (centres unmarked) [Compound 255] was tested, and the “IC90 STA B29213” value [1] was 3.65 µg/mL (≈ 6.71 µM) and the “IC90 MSM 607” value [2] was 7.28 µg/mL (≈ 13.4 µM).

For O=c1[nH]c2ccc(Br)cc2cc1C(c1ccc(Cl)cc1)C1(O)CCNC(CC2CCCCC2)C1 (centres unmarked) [Compound 258], the “IC90 STA B29213” value [1] was 3.66 µg/mL (≈ 6.73 µM) and the “IC90 MSM 607” value [2] was 3.66 µg/mL (≈ 6.73 µM).

Cc1cc(F)ccc1C1CC(O)(C(c2ccccc2)c2cc3cc(S(C)(=O)=O)ccc3[nH]c2=O)CCN1 (centres unmarked) [Compound 263] was tested, and the “IC90 STA B29213” value [1] was >13.89 µg/mL and the “IC90 MSM 607” value [2] was >13.89 µg/mL.

Cc1cc(F)ccc1C1CC(O)(C(c2ccccc2)c2cc3cc(S(C)(=O)=O)ccc3[nH]c2=O)CCN1 (centres unmarked) [Compound 264] was tested, and the “IC90 STA B29213” value [1] was >13.88 µg/mL and the “IC90 MSM 607” value [2] was 3.49 µg/mL (≈ 6.7 µM).

With Cc1cc(F)ccc1C1CC(O)(C(c2ccccc2)c2cc3cc(S(C)(=O)=O)ccc3[nH]c2=O)CCN1 (centres unmarked) [Compound 265] the “IC90 STA B29213” value [1] was >13.92 µg/mL and the “IC90 MSM 607” value [2] was 13.92 µg/mL (≈ 26.7 µM).

For CSc1ccc2[nH]c(=O)c(C(c3ccc(Cl)cc3)C3(O)CCNC(c4ccc(F)cc4C)C3)cc2c1 (centres unmarked) [Compound 266], the IC90 [1] was 2.5 µg/mL (≈ 4.78 µM) and the IC90 [2] was 2.22 µg/mL (≈ 4.24 µM).

In the case of CSc1ccc2[nH]c(=O)c(C(c3ccc(Cl)cc3)C3(O)CCNC(c4ccc(F)cc4C)C3)cc2c1 (centres unmarked) [Compound 268], the “IC90 STA B29213” value [1] is reported as 1.76 µg/mL (≈ 3.36 µM) and the “IC90 MSM 607” value [2] is reported as 1.40 µg/mL (≈ 2.68 µM).

Cc1cc(F)ccc1C1CC(O)(C(c2cccc(Cl)c2)c2cc3cc(S(C)(=O)=O)ccc3[nH]c2=O)CCN1 (centres unmarked) [Compound 269] was tested, and the “IC90 STA B29213” value [1] was >14.75 µg/mL and the “IC90 MSM 607” value [2] was >14.75 µg/mL.

In the case of Cc1cc(F)ccc1C1CC(O)(C(c2cccc(Cl)c2)c2cc3cc(S(C)(=O)=O)ccc3[nH]c2=O)CCN1 (centres unmarked) [Compound 270], the “IC90 STA B29213” value [1] is reported as 7.42 µg/mL (≈ 13.4 µM) and the “IC90 MSM 607” value [2] is reported as 5.89 µg/mL (≈ 10.6 µM).

Cc1cc(F)ccc1C1CC(O)(C(c2cccc(Cl)c2)c2cc3cc(S(C)(=O)=O)ccc3[nH]c2=O)CCN1 (centres unmarked) [Compound 271] was tested, and the “IC90 STA B29213” value [1] was 7.42 µg/mL (≈ 13.4 µM) and the “IC90 MSM 607” value [2] was 9.34 µg/mL (≈ 16.8 µM).

For Cc1cc(F)ccc1C1CC(O)(C(c2cccc(Cl)c2)c2cc3cc(S(C)(=O)=O)ccc3[nH]c2=O)CCN1 (centres unmarked) [Compound 272], the “IC90 STA B29213” value [1] was >14.78 µg/mL and the “IC90 MSM 607” value [2] was >14.78 µg/mL.

For COc1nc2ccc(SC)cc2cc1C(c1ccc(Cl)cc1)C1(O)CCNC(c2ccc(F)cc2C)C1 (centres unmarked) [Compound 274], the “IC90 STA B29213” value [1] was 1.91 µg/mL (≈ 3.56 µM) and the “IC90 MSM 607” value [2] was 1.07 µg/mL (≈ 1.99 µM).

In the case of COc1nc2ccc(SC)cc2cc1C(c1ccc(Cl)cc1)C1(O)CCNC(c2ccc(F)cc2C)C1 (centres unmarked) [Compound 276], the “IC90 STA B29213” value [1] is reported as 1.70 µg/mL (≈ 3.17 µM) and the “IC90 MSM 607” value [2] is reported as 1.07 µg/mL (≈ 1.99 µM).

With CSc1ccc2[nH]c(=O)c(C(c3ccc(Cl)cc3)C3(O)CCNC(c4ccc(F)cc4C)C3)cc2c1 (centres unmarked) [Compound 277] the “IC90 STA B29213” value [1] was 1.76 µg/mL (≈ 3.36 µM) and the “IC90 MSM 607” value [2] was 1.40 µg/mL (≈ 2.68 µM).

With CSc1ccc2[nH]c(=O)c(C(c3ccc(Cl)cc3)C3(O)CCNC(c4ccc(F)cc4C)C3)cc2c1 (centres unmarked) [Compound 278] the “IC90 STA B29213” value [1] was 1.77 µg/mL (≈ 3.38 µM) and the “IC90 MSM 607” value [2] was 1.40 µg/mL (≈ 2.68 µM).

For Cc1cc(F)ccc1C1CC(O)(C(c2ccccc2)c2cc3cc(Br)ccc3[nH]c2=O)CCN1 (centres unmarked) [Compound 279], the “IC90 STA B29213” value [1] was 7.00 µg/mL (≈ 13.4 µM) and the “IC90 MSM 607” value [2] was 7.00 µg/mL (≈ 13.4 µM).

Cc1cc(F)ccc1C1CC(O)(C(c2ccccc2)c2cc3cc(Br)ccc3[nH]c2=O)CCN1 (centres unmarked) [Compound 280] was tested, and the “IC90 STA B29213” value [1] was 1.75 µg/mL (≈ 3.36 µM) and the “IC90 MSM 607” value [2] was 1.10 µg/mL (≈ 2.11 µM).
